Test results from ChEMBL document CHEMBL5291721, “A preclinical secondary pharmacology resource illuminates target-adverse drug reaction associations of marketed drugs” (Nat Commun, 2023).

Assays:
[1] = molecular target: Vasopressin V2 receptor (Homo sapiens, UniProt P30518)
[2] = molecular target: T1, Alpha-1A adrenergic receptor (Homo sapiens, UniProt P35348); format: functional, cell-based
T1 sequence (P35348 whole entry): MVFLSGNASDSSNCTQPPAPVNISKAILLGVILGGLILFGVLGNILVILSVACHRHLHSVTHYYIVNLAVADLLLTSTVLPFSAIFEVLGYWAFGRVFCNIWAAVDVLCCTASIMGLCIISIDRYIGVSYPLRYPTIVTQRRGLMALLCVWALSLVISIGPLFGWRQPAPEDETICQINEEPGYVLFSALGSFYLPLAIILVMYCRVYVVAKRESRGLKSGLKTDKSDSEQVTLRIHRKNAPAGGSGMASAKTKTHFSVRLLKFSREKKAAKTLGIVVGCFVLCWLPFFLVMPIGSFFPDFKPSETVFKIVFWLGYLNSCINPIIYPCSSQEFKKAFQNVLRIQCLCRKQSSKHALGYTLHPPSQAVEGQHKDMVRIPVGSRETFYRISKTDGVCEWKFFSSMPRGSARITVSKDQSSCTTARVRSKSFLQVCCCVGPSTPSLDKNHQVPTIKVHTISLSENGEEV

[3] = molecular target: Histamine H2 receptor (Homo sapiens, UniProt P25021); format: functional, cell-based
[4] = molecular target: cGMP-inhibited 3',5'-cyclic phosphodiesterase 3A (Homo sapiens, UniProt Q14432); format: functional
[5] = molecular target: Neuronal acetylcholine receptor subunit alpha-4 (Homo sapiens, UniProt P43681)
[6] = molecular target: Glutamate receptor ionotropic, NMDA 1 (Rattus norvegicus, UniProt P35439)
[7] = molecular target: 5-hydroxytryptamine receptor 2B (Homo sapiens, UniProt P41595); format: functional, cell-based
[8] = molecular target: T2, 5-hydroxytryptamine receptor 3A (Homo sapiens, UniProt P46098); format: functional
T2 sequence (P46098 whole entry): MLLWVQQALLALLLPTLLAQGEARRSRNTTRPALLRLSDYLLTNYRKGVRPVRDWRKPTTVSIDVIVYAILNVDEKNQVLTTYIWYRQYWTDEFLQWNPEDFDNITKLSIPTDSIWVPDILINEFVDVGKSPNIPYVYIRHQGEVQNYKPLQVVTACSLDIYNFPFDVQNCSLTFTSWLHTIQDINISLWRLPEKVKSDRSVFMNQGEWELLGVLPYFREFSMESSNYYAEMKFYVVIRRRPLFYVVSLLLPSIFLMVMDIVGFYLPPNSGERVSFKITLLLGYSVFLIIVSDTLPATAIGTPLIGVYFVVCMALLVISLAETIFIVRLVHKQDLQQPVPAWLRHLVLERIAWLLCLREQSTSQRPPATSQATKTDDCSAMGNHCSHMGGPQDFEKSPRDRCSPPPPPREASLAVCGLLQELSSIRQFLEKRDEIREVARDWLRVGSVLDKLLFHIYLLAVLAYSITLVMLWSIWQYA

[9] = molecular target: 3',5'-cyclic-AMP phosphodiesterase 4D (Homo sapiens, UniProt Q08499); format: functional
[10] = molecular target: Voltage-gated inwardly rectifying potassium channel KCNH2 (Homo sapiens, UniProt Q12809); format: functional
[11] = molecular target: T1, Alpha-1A adrenergic receptor; format: functional, cell-based; remark: listed apart in the source
[12] = molecular target: Gamma-aminobutyric acid receptor subunit alpha-1 (Rattus norvegicus, UniProt P62813)
[13] = molecular target: Adenosine receptor A2a (Homo sapiens, UniProt P29274)
[14] = molecular target: Sodium-dependent dopamine transporter (Homo sapiens, UniProt Q01959)
[15] = molecular target: T3, Glucocorticoid receptor (Homo sapiens, UniProt P04150)
T3 sequence (P04150 whole entry): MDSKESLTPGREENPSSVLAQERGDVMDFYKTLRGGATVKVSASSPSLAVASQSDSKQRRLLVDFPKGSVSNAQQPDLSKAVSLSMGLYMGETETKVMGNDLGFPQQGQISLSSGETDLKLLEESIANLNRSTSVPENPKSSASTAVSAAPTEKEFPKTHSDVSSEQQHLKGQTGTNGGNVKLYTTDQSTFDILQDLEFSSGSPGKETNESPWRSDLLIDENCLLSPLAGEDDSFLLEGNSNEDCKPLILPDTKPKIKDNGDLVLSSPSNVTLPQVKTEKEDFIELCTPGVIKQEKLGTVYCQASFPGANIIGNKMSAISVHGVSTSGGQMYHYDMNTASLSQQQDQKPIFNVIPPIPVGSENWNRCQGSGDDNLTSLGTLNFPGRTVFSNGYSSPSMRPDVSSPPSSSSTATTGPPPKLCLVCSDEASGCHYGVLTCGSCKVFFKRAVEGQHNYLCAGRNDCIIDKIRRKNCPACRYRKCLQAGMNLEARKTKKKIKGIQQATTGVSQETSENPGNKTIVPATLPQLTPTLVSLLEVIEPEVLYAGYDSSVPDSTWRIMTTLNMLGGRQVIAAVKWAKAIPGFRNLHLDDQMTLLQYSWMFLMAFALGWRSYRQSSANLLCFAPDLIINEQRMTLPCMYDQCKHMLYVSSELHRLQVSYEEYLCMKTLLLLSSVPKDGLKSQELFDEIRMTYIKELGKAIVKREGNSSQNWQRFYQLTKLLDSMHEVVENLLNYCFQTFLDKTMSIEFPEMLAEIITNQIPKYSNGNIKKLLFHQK

[16] = molecular target: Motilin receptor (Homo sapiens, UniProt O43193)
[17] = molecular target: Histamine H1 receptor (Homo sapiens, UniProt P35367)
[18] = molecular target: Beta-2 adrenergic receptor (Homo sapiens, UniProt P07550)
Further: assay procedure not described here.

Chain of Sodium-dependent dopamine transporter (Q01959 whole entry): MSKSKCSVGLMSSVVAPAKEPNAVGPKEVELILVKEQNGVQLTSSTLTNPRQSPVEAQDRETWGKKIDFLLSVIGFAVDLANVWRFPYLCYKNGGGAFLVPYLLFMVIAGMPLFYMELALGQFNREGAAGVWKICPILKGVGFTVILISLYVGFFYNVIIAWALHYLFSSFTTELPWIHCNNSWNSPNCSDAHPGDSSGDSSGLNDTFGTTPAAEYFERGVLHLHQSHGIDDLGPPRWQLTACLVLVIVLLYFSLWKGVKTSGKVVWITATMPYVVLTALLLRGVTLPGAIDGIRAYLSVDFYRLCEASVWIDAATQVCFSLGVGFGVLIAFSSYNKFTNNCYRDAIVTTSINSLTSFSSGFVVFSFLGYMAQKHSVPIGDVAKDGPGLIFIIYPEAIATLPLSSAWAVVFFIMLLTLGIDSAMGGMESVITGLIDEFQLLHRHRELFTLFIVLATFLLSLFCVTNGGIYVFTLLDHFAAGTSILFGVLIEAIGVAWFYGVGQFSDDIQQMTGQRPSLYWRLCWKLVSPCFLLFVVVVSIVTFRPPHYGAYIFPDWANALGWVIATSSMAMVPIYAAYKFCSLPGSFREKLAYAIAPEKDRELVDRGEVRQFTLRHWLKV
Chain of Histamine H2 receptor (P25021 whole entry): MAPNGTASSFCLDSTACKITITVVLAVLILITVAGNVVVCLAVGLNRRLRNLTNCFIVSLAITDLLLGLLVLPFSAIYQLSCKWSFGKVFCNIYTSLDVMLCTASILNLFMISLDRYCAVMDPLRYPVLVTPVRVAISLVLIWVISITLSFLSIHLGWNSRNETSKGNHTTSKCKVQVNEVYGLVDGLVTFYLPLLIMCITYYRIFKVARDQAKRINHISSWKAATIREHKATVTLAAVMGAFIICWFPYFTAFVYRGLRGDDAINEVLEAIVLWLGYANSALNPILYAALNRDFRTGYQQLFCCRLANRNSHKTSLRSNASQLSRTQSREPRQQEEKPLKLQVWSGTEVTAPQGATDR
Chain of Beta-2 adrenergic receptor (P07550 whole entry): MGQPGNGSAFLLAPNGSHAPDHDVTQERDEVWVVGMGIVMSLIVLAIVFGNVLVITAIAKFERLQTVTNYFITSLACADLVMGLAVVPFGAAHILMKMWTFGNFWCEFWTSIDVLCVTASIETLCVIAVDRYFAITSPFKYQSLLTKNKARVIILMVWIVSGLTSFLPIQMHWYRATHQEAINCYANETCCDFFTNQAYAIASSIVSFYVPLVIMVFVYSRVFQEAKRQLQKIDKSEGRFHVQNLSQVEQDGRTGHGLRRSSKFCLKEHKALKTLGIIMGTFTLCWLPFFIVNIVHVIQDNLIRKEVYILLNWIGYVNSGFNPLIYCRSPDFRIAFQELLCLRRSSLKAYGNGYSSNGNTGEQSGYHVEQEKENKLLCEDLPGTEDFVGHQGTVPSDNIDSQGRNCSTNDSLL
Chain of 3',5'-cyclic-AMP phosphodiesterase 4D (Q08499 whole entry): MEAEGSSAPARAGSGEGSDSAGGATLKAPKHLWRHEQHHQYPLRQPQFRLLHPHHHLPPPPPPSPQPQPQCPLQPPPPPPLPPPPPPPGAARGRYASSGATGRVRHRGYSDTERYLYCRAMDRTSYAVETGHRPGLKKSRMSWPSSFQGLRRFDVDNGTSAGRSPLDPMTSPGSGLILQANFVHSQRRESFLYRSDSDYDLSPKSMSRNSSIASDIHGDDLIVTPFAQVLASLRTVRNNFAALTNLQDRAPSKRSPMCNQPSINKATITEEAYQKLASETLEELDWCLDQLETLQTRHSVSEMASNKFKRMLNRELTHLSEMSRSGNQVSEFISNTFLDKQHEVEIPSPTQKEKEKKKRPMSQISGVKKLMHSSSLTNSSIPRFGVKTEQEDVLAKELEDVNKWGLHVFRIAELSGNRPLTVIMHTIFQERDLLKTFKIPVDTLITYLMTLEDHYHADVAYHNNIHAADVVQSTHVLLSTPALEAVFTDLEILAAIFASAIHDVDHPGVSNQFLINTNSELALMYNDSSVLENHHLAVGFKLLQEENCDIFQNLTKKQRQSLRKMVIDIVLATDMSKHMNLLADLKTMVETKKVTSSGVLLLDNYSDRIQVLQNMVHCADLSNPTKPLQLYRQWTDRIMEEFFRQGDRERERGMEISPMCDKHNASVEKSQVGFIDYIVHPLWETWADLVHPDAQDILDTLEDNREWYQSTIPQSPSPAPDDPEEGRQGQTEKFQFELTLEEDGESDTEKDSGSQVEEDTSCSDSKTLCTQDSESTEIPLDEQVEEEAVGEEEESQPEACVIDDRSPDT
Chain of Neuronal acetylcholine receptor subunit alpha-4 (P43681 whole entry): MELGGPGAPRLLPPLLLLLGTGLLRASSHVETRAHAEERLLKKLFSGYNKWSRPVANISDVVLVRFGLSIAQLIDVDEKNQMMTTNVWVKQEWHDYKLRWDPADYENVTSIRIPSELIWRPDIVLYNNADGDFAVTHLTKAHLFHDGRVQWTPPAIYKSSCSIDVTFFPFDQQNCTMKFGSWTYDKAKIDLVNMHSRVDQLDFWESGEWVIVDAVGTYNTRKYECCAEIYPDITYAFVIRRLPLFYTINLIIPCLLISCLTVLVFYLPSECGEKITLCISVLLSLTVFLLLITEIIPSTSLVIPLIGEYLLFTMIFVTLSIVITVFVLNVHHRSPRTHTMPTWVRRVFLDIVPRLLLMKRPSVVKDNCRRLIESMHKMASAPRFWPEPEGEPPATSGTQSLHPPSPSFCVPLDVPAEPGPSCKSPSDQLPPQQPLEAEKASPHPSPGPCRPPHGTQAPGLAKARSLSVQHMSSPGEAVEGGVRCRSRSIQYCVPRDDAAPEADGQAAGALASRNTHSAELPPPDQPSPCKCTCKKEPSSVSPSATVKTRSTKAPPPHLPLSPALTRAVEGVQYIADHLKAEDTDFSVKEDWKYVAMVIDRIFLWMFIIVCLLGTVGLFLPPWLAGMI
Chain of Histamine H1 receptor (P35367 whole entry): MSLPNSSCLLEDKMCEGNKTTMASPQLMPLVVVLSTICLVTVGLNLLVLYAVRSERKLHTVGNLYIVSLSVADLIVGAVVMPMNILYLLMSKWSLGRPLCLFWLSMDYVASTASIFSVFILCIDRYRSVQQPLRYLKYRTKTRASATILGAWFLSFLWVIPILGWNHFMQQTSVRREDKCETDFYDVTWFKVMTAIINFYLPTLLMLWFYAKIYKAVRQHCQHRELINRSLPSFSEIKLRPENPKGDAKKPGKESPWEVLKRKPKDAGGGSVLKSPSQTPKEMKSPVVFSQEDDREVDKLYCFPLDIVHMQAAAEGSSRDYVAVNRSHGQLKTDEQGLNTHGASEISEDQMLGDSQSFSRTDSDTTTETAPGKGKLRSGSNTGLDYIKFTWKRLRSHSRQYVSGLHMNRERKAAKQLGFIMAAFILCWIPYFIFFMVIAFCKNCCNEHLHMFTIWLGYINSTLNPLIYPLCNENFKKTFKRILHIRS
Chain of Vasopressin V2 receptor (P30518 whole entry): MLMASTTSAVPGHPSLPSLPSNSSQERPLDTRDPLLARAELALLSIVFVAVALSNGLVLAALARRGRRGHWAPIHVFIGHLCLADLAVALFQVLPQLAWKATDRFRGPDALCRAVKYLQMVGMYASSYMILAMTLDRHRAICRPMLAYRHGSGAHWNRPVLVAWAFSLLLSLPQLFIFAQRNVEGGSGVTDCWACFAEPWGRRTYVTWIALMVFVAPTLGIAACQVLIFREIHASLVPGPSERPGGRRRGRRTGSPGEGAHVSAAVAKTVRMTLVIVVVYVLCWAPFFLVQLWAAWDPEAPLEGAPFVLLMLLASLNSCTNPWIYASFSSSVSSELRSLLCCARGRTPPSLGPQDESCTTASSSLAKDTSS
Chain of 5-hydroxytryptamine receptor 2B (P41595 whole entry): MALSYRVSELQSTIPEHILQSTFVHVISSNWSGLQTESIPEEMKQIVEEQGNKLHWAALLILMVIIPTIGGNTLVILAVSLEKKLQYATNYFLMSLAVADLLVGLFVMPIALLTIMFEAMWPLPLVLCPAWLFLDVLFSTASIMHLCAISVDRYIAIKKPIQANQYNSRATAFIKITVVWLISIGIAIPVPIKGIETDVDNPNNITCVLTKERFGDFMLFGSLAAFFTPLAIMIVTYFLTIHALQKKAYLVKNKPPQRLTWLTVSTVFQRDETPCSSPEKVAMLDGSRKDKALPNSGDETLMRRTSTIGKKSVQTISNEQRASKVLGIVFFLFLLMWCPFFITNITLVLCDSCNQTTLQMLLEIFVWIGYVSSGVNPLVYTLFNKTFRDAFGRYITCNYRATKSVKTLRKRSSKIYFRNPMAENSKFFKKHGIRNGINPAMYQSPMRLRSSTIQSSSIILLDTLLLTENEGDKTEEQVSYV
Chain of Motilin receptor (O43193 whole entry): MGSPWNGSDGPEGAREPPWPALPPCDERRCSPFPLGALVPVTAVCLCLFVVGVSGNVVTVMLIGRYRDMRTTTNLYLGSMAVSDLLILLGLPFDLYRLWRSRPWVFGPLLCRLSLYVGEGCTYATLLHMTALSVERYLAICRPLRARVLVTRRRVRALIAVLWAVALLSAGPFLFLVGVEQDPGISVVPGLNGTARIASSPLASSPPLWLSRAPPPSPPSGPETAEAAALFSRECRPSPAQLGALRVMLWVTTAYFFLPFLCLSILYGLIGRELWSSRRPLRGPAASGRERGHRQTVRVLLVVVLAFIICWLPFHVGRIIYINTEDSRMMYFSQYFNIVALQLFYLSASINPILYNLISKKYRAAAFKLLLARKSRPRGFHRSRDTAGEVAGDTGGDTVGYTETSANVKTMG
Chain of Adenosine receptor A2a (P29274 whole entry): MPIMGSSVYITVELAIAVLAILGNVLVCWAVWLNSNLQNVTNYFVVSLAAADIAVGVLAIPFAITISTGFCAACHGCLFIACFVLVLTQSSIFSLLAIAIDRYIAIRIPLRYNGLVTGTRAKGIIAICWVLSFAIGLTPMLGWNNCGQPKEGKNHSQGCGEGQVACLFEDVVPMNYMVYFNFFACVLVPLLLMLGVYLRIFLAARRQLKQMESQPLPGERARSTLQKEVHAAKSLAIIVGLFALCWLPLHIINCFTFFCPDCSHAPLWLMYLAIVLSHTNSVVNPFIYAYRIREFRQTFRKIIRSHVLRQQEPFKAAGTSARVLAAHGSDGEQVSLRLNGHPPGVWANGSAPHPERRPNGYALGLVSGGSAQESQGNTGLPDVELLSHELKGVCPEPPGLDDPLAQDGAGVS

NC(=O)CN1CCCC1=O
AC50 [1]: > 30 µM | AC50 [2]: > 30 µM | AC50 [3]: > 30 µM | AC50 [4]: > 30 µM | AC50 [5]: > 30 µM | AC50 [6]: > 30 µM | AC50 [7]: > 30 µM | AC50 [8]: > 30 µM | AC50 [9]: > 30 µM | AC50 [10]: > 30 µM | AC50 [11]: > 30 µM | AC50 [12]: > 30 µM | AC50 [13]: > 30 µM | AC50 [14]: > 30 µM | AC50 [15]: > 30 µM | AC50 [16]: > 30 µM

Cn1c(=O)cc(N2CCC[C@@H](N)C2)n(Cc2ccccc2C#N)c1=O [ALOGLIPTIN]
AC50 [1]: > 30 µM | AC50 [4]: > 30 µM | AC50 [5]: > 10 µM | AC50 [17]: > 10 µM | AC50 [6]: > 10 µM | AC50 [18]: > 10 µM | AC50 [8]: > 10 µM | AC50 [9]: > 30 µM | AC50 [13]: > 30 µM | AC50 [14]: > 10 µM | AC50 [15]: > 30 µM | AC50 [16]: > 10 µM

Nc1c2ccccc2nc2ccccc12 [AMINACRINE]
AC50 [10]: 12 µM

CCN1CCCC1CNC(=O)c1cc(S(=O)(=O)CC)c(N)cc1OC (configuration not stated) [AMISULPRIDE]
AC50 [1]: > 30 µM | AC50 [2]: > 30 µM | AC50 [3]: > 30 µM | AC50 [4]: > 30 µM | AC50 [5]: > 30 µM | AC50 [17]: 30 µM | AC50 [6]: > 30 µM | AC50 [8]: > 30 µM | AC50 [9]: > 30 µM | AC50 [12]: > 30 µM | AC50 [13]: > 30 µM | AC50 [15]: > 30 µM

O=C1CN=C(c2ccccn2)c2cc(Br)ccc2N1 [BROMAZEPAM]
AC50 [1]: > 10 µM | AC50 [2]: 11 µM | AC50 [3]: > 10 µM | AC50 [4]: > 30 µM | AC50 [5]: > 10 µM | AC50 [17]: > 10 µM | AC50 [6]: > 10 µM | AC50 [7]: > 10 µM | AC50 [18]: > 10 µM | AC50 [8]: > 30 µM | AC50 [9]: > 30 µM | AC50 [10]: > 30 µM | AC50 [12]: > 10 µM | AC50 [13]: > 10 µM | AC50 [14]: > 10 µM | AC50 [15]: > 10 µM | AC50 [16]: > 10 µM

CC(=O)[C@@]1(O)CC[C@H]2[C@@H]3C=C(Cl)C4=CC(=O)[C@@H]5C[C@@H]5[C@]4(C)[C@H]3CC[C@@]21C [CYPROTERONE]
AC50 [1]: > 10 µM | AC50 [3]: > 10 µM | AC50 [4]: 16 µM | AC50 [5]: > 10 µM | AC50 [17]: > 10 µM | AC50 [6]: > 10 µM | AC50 [7]: > 10 µM | AC50 [18]: > 10 µM | AC50 [8]: > 30 µM | AC50 [9]: > 10 µM | AC50 [10]: > 30 µM | AC50 [12]: > 10 µM | AC50 [13]: > 10 µM | AC50 [14]: > 10 µM | AC50 [16]: > 10 µM

CC(=O)[C@]1(O)Cc2c(O)c3c(c(O)c2[C@@H](O[C@H]2C[C@H](N)[C@H](O)[C@H](C)O2)C1)C(=O)c1ccccc1C3=O [IDARUBICIN]
AC50 [1]: > 10 µM | AC50 [3]: > 30 µM | AC50 [4]: > 30 µM | AC50 [5]: > 30 µM | AC50 [6]: > 30 µM | AC50 [18]: > 30 µM | AC50 [8]: 13 µM | AC50 [9]: > 30 µM | AC50 [10]: 20.7 µM | AC50 [12]: > 30 µM | AC50 [13]: > 30 µM | AC50 [14]: 15 µM | AC50 [15]: 0.11 µM | AC50 [16]: > 10 µM
